Results: publication PMC2922960 (Bioorganic & medicinal chemistry letters, 2009)

What was measured:
[1] = target: T1, recombinant mammalian FTase (Homo sapiens, UniProt P49354+P49356); assay: HPLC analysis of farnesylated peptide product formation; type: biochemical; settings: 3 μM peptide, 9 μM FPP, 0.05 μM FTase; for HPLC: formation of farnesylated peptide product: after 60 min incubation with FTase
FTase [2] = target: FTase (Homo sapiens, UniProt P49354+P49356); assay: steady-state kinetic assay; type: biochemical, mammalian; settings: saturating FPP (10 μM), 0.2-10 μM dansylated peptide, 20-100 nM FTase, 50 mM HEPPSO pH 7.8, 5 mM TCEP, 5 mM MgCl2, 25 °C; fluorescence λex 340 nm, λem 520 nm
[3] = target: T1, recombinant mammalian FTase; assay: continuous spectrofluorimetric assay of FTase substrate activity; type: biochemical; settings: from fluorescence screen and HPLC confirmation
FTase [4] = settings: cited from earlier work

| Substance | HPLC: formation of farnesylated peptide product [1] | also measured |
| --- | --- | --- |
| CGGL | − − |  |
| CEKL | − − |  |
| CSTL | − − |  |
| CAIL | +++ | kcat/KM (FTase [2]): 27000 ± 2000 M⁻¹ s⁻¹ |
| DnGCVIL | +++ | kcat/KM (FTase [2]): 47000 ± 8000 M⁻¹ s⁻¹ |
| CSLL | − (less than 25% conversion) |  |
| CKVL | + (25% to 50% conversion to product) | FTase substrate ability (category in words) [3]: relatively modest FTase substrates |
| CILL | ++ | kcat/KM (FTase [2]): 8000 ± 2000 M⁻¹ s⁻¹ |
| CHAL | − − |  |
| CTLL | + (25% to 50% conversion to product) |  |
| CLQL | − (less than 25% conversion) |  |
| CHPL | − − |  |
| CSFL | − − |  |
| CSQL | − − |  |
| CTIL | ++ | kcat/KM (FTase [2]): 33000 ± 7000 M⁻¹ s⁻¹ |
| CLLL | + (25% to 50% conversion to product) | FTase substrate ability (category in words) [3]: poor FTase substrate |
| CALL | + (25% to 50% conversion to product) |  |
| CLIL | ++ | FTase substrate ability (category in words) [3]: confirmed substrates |
| CSIL | +++ | kcat/KM (FTase [2]): 5000 ± 1000 M⁻¹ s⁻¹ |
| CRLL | + (25% to 50% conversion to product) |  |
| CLVL | + (25% to 50% conversion to product) |  |
| CQLL | − (less than 25% conversion) |  |

| Substance | HPLC: formation of farnesylated peptide product [1] | also measured |
| --- | --- | --- |
| CPIL | + (25% to 50% conversion to product) | FTase substrate ability (category in words) [3]: confirmed substrates |
| DnGCVLS [reference compound] |  | turnover to farnesylated product ([1]; after 15 minutes): complete turnover |
| CNPL | − − |  |
| CCSL | − − |  |
| CVGL | − − |  |
| CCVL | +++ | kcat/KM (FTase [2]): 7000 ± 1000 M⁻¹ s⁻¹ |
| CVLL | + (25% to 50% conversion to product) | FTase substrate ability (category in words) [3]: relatively modest FTase substrates |
| DnTKCVIL |  | FTase substrate activity under single turnover conditions (FTase [4]; single turnover conditions): FTase substrate; FTase turnover under steady-state conditions (FTase [4]; steady-state conditions): did not exhibit efficient turnover |
| CAYL | − − |  |
| CGCL | − − |  |
| CQNL | − − |  |
| CLGL | − − |  |
| CTAL | − − |  |
| CSVL | + (25% to 50% conversion to product) |  |
| CMEL | − − |  |
| CGQL | − − |  |
| CCLL | + (25% to 50% conversion to product) |  |
| CIIL | +++ | kcat/KM (FTase [2]): 43000 ± 8000 M⁻¹ s⁻¹ |
| DnGCCIL | +++ | kcat/KM (FTase [2]): 23000 ± 3000 M⁻¹ s⁻¹; FTase substrate ability (category in words) [3]: efficient FTase substrate |
| CNIL | ++ | kcat/KM (FTase [2]): 12000 ± 900 M⁻¹ s⁻¹ |
| DnGCLML | ++ | kcat/KM (FTase [2]): 8100 ± 500 M⁻¹ s⁻¹; FTase substrate ability (category in words) [3]: good FTase substrate |
